{"source": "paper PMC9898036", "about": "“VIP152 is a selective CDK9 inhibitor with pre-clinical in vitro and in vivo efficacy in chronic lymphocytic leukemia” (Leukemia, 2022)", "experiment_in_all_cases": "DiscoverX KINOMEscan kinase profiling (468 assays)", "assay_type_in_all_cases": "binding", "key": {"[1]": {"target": "human kinome (Homo sapiens, UniProt O15075)", "conditions": "DCAMKL1 (Entrez DCLK1); 100 nM; read-out: Percent Control", "how_it_was_run": "(§1)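 DNA-tagged kinases competed for immobilized biotinylated ligands on streptavidin magnetic beads, with bound kinase quantified by qPCR. VIP152 in DMSO was tested against a DMSO control.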"}, "[2]": {"target": "human kinome (Homo sapiens, UniProt O75914)", "sequence (O75914 whole entry)": "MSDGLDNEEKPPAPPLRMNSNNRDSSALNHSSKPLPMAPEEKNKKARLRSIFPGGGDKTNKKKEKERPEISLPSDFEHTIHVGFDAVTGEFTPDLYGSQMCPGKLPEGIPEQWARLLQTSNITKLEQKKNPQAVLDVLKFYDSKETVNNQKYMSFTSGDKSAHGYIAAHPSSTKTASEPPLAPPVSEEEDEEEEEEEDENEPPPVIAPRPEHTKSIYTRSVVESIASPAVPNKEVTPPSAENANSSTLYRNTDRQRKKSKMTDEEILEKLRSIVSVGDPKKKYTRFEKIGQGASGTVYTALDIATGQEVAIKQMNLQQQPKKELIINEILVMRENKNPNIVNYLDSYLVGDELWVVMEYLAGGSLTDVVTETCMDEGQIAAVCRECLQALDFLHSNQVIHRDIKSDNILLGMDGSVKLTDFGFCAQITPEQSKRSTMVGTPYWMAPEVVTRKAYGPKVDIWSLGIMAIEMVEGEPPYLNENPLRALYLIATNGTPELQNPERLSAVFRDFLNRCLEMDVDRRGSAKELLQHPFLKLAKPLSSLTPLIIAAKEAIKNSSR", "conditions": "read-out: Percent Control", "how_it_was_run": "as §1"}, "[3]": {"target": "human kinome (Homo sapiens, UniProt O94921)", "sequence (O94921 whole entry)": "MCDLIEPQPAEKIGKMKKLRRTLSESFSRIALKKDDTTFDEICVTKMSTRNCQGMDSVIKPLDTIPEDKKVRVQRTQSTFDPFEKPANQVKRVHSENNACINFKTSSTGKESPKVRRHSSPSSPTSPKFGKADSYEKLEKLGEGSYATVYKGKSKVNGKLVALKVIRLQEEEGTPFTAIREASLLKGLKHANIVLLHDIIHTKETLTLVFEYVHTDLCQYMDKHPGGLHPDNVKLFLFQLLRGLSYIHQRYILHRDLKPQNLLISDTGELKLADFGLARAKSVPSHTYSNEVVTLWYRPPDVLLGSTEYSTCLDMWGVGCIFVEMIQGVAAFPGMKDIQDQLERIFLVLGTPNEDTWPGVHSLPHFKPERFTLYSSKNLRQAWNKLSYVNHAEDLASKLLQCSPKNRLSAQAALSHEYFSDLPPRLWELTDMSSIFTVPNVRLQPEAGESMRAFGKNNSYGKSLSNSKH", "conditions": "read-out: Percent Control", "how_it_was_run": "as §1"}, "[4]": {"target": "human kinome (Homo sapiens, UniProt P00533, G719S)", "conditions": "EGFR(G719S); 100 nM; read-out: Percent Control", "how_it_was_run": "as §1"}, "[5]": {"target": "human kinome (Homo sapiens, UniProt P09769)", "conditions": "FGR; 100 nM; read-out: Percent Control", "how_it_was_run": "as §1"}, "[6]": {"target": "human kinome (Homo sapiens, UniProt P0C264)", "conditions": "kinase SgK110 (Entrez SgK110); compound concentration 1000 nM; read-out: Percent Control", "how_it_was_run": "as §1"}, "[7]": {"target": "human kinome (Homo sapiens, UniProt P12931)", "conditions": "kinase SRC (Entrez SRC); compound concentration 1000 nM; read-out: Percent Control", "how_it_was_run": "as §1"}, "[8]": {"target": "human kinome (Homo sapiens, UniProt P28482)", "conditions": "ERK2 (Entrez MAPK1); 100 nM; read-out: Percent Control", "how_it_was_run": "as §1"}, "[9]": {"target": "human kinome (Homo sapiens, UniProt P29317)", "conditions": "EPHA2; 100 nM; read-out: Percent Control", "how_it_was_run": "as §1"}, "[10]": {"target": "human kinome (Homo sapiens, UniProt P35626)", "conditions": "GRK3 (Entrez ADRBK2); 100 nM; read-out: Percent Control", "how_it_was_run": "as §1"}, "[11]": {"target": "human kinome (Homo sapiens, UniProt P42685)", "conditions": "FRK; 100 nM; read-out: Percent Control", "how_it_was_run": "as §1"}, "[12]": {"target": "human kinome (Homo sapiens, UniProt P49760)", "conditions": "CLK2; 100 nM; read-out: Percent Control", "how_it_was_run": "as §1"}, "[13]": {"target": "human kinome (Homo sapiens, UniProt P53350)", "sequence (P53350 whole entry)": "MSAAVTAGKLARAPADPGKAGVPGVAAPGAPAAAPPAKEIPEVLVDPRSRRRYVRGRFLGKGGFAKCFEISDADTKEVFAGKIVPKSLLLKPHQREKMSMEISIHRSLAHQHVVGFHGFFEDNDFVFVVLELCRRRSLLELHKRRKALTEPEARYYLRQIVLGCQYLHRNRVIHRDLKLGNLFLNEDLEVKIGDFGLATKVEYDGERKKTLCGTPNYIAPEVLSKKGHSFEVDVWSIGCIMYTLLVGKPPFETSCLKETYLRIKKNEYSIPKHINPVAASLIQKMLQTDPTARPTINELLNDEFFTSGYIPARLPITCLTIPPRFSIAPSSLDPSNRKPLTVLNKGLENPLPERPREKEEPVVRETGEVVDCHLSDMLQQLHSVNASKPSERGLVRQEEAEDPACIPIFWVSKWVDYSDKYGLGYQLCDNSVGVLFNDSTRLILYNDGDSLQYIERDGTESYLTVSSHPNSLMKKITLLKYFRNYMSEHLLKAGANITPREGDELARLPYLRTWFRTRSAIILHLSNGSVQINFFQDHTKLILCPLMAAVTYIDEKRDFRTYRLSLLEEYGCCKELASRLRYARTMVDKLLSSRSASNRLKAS", "conditions": "read-out: Percent Control", "how_it_was_run": "as §1"}, "[14]": {"target": "human kinome (Homo sapiens, UniProt P54646)", "conditions": "AMPK-alpha2 (Entrez PRKAA2); 100 nM; read-out: Percent Control", "how_it_was_run": "as §1"}, "[15]": {"target": "human kinome (Homo sapiens, UniProt P78362)", "conditions": "kinase SRPK2 (Entrez SRPK2); compound concentration 1000 nM; read-out: Percent Control", "how_it_was_run": "as §1"}, "[16]": {"target": "human kinome (Homo sapiens, UniProt Q04771)", "conditions": "ACVR1; 100 nM; read-out: Percent Control", "how_it_was_run": "as §1"}, "[17]": {"target": "human kinome (Homo sapiens, UniProt Q04912)", "conditions": "MST1R; 100 nM; read-out: Percent Control", "how_it_was_run": "as §1"}, "[18]": {"target": "human kinome (Homo sapiens, UniProt Q05655)", "sequence (Q05655 whole entry)": "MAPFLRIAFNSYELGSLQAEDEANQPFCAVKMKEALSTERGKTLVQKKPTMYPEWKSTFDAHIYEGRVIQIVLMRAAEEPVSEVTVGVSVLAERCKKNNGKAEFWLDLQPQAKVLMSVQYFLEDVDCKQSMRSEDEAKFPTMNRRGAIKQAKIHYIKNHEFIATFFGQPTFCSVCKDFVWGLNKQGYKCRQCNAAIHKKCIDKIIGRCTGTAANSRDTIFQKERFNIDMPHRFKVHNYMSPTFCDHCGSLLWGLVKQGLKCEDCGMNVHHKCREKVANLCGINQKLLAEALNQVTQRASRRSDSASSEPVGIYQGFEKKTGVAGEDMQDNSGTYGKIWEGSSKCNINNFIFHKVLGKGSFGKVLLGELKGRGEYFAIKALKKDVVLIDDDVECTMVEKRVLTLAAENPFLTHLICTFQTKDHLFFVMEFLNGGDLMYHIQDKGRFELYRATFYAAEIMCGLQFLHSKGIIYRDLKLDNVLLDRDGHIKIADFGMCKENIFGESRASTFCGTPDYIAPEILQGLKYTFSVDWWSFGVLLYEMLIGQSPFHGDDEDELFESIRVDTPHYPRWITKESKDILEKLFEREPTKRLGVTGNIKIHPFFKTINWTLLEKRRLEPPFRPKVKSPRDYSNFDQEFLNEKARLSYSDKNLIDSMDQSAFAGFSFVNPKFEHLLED", "conditions": "read-out: Percent Control", "how_it_was_run": "as §1"}, "[19]": {"target": "human kinome (Homo sapiens, UniProt Q07912)", "conditions": "kinase TNK2 (Entrez TNK2); compound concentration 1000 nM; read-out: Percent Control", "how_it_was_run": "as §1"}, "[20]": {"target": "human kinome (Homo sapiens, UniProt Q13237)", "sequence (Q13237 whole entry)": "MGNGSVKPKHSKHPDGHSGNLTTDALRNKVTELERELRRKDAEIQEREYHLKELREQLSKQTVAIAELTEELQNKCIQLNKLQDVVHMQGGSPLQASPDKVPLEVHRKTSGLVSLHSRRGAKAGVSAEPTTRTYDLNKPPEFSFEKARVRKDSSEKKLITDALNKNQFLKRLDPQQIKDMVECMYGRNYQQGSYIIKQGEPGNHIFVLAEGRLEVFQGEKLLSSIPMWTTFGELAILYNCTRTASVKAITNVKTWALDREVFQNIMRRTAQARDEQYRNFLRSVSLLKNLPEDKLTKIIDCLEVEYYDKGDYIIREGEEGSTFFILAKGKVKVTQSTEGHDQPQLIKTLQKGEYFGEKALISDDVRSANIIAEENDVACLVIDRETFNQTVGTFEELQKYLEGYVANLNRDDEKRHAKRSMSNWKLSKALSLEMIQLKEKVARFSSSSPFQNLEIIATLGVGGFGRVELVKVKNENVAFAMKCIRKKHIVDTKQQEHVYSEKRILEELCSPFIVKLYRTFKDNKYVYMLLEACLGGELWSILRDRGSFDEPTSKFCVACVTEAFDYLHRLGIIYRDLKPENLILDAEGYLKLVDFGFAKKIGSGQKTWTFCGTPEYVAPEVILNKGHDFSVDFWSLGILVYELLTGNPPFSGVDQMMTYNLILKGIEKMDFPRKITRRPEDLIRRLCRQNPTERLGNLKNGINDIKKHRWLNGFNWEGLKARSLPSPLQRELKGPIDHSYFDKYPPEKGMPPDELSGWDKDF", "conditions": "read-out: Percent Control", "how_it_was_run": "as §1"}, "[21]": {"target": "human kinome (Homo sapiens, UniProt Q13554)", "conditions": "CAMK2B; 100 nM; read-out: Percent Control", "how_it_was_run": "as §1"}, "[22]": {"target": "human kinome (Homo sapiens, UniProt Q13627)", "conditions": "DYRK1A; 100 nM; read-out: Percent Control", "how_it_was_run": "as §1"}, "[23]": {"target": "human kinome (Homo sapiens, UniProt Q16584)", "conditions": "MLK3 (Entrez MAP3K11); 100 nM; read-out: Percent Control", "how_it_was_run": "as §1"}, "[24]": {"target": "human kinome (Homo sapiens, UniProt Q6P2M8)", "conditions": "CAMK1B (Entrez PNCK); 100 nM; read-out: Percent Control", "how_it_was_run": "as §1"}, "[25]": {"target": "human kinome (Homo sapiens, UniProt Q86V86)", "conditions": "read-out: Percent Control", "how_it_was_run": "as §1"}, "[26]": {"target": "human kinome (Homo sapiens, UniProt Q99558)", "sequence (Q99558 whole entry)": "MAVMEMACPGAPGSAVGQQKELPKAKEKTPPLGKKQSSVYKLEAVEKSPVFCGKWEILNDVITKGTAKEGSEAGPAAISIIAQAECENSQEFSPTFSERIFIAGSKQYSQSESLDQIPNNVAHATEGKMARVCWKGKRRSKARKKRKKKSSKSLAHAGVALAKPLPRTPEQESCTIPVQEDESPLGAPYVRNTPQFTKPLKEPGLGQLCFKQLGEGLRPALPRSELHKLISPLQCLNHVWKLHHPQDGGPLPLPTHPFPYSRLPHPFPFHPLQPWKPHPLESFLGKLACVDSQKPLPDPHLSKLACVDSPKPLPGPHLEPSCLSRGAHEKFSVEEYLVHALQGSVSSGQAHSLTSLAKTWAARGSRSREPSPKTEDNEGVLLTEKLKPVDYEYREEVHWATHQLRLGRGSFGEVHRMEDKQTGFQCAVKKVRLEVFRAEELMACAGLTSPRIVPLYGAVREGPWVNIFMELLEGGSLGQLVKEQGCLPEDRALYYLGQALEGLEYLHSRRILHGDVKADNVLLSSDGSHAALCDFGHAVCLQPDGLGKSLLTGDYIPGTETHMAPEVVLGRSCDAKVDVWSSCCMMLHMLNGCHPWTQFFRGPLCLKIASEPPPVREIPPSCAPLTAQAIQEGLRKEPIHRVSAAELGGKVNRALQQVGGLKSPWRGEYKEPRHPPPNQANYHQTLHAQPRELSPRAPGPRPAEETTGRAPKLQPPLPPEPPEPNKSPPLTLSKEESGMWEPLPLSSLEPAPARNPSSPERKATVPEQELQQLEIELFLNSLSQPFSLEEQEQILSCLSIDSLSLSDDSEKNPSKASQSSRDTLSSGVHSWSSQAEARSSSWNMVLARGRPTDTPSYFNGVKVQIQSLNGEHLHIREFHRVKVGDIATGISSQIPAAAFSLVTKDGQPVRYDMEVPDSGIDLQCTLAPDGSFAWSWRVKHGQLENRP", "conditions": "read-out: Percent Control", "how_it_was_run": "as §1"}, "[27]": {"target": "human kinome (Homo sapiens, UniProt Q99755)", "sequence (Q99755 whole entry)": "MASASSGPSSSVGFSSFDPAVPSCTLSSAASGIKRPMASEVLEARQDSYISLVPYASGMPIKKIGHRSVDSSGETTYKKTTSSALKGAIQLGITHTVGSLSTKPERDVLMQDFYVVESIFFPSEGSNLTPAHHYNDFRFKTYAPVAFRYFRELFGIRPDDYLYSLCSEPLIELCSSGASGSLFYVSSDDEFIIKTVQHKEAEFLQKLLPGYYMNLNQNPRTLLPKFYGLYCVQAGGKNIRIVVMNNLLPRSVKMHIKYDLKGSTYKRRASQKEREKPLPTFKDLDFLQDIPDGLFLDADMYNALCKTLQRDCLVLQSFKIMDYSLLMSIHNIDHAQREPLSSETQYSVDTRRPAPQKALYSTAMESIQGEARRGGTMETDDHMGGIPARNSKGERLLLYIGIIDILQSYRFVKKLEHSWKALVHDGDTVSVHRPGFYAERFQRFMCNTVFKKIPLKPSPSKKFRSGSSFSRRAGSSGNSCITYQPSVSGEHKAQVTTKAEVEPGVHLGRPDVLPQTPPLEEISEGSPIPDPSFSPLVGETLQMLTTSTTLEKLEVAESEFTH", "conditions": "read-out: Percent Control", "how_it_was_run": "as §1"}, "[28]": {"target": "human kinome (Homo sapiens, UniProt Q9NY57)", "conditions": "kinase YANK2 (Entrez STK32B); compound concentration 1000 nM; read-out: Percent Control", "how_it_was_run": "as §1"}, "[29]": {"target": "human kinome (Homo sapiens, UniProt Q9UPE1)", "conditions": "kinase SRPK3 (Entrez SRPK3); compound concentration 1000 nM; read-out: Percent Control", "how_it_was_run": "as §1"}}}
{"smiles": "COc1cc(F)ccc1-c1cc(Nc2cc(CS(C)(=N)=O)ccn2)ncc1F", "note": "(stereo not shown) [VIP152]", "values": [{"measurement": "remaining binding at 0.1 µM", "setting": "[1]", "result": 91, "unit": "%"}, {"measurement": "remaining binding at 0.1 µM", "setting": "[2]; PAK3, 100 nM", "result": 100, "unit": "%"}, {"measurement": "remaining binding at 1 µM", "setting": "[2]; kinase PAK3 (Entrez PAK3), compound concentration 1000 nM", "result": 62, "unit": "%"}, {"measurement": "remaining binding at 0.1 µM", "setting": "[3]; PFTK1 (Entrez CDK14), 100 nM", "result": 100, "unit": "%"}, {"measurement": "remaining binding at 1 µM", "setting": "[3]; kinase PFTK1 (Entrez CDK14), compound concentration 1000 nM", "result": 84, "unit": "%"}, {"measurement": "remaining binding at 0.1 µM", "setting": "[4]", "result": 100, "unit": "%"}, {"measurement": "remaining binding at 0.1 µM", "setting": "[5]", "result": 100, "unit": "%"}, {"measurement": "remaining binding at 1 µM", "setting": "[6]", "result": 100, "unit": "%"}, {"measurement": "remaining binding at 1 µM", "setting": "[7]", "result": 83, "unit": "%"}, {"measurement": "remaining binding at 0.1 µM", "setting": "[8]", "result": 100, "unit": "%"}, {"measurement": "remaining binding at 0.1 µM", "setting": "[9]", "result": 92, "unit": "%"}, {"measurement": "remaining binding at 0.1 µM", "setting": "[10]", "result": 89, "unit": "%"}, {"measurement": "remaining binding at 0.1 µM", "setting": "[11]", "result": 100, "unit": "%"}, {"measurement": "remaining binding at 0.1 µM", "setting": "[12]", "result": 61, "unit": "%"}, {"measurement": "remaining binding at 0.1 µM", "setting": "[13]; PLK1, 100 nM", "result": 100, "unit": "%"}, {"measurement": "remaining binding at 1 µM", "setting": "[13]; kinase PLK1 (Entrez PLK1), compound concentration 1000 nM", "result": 89, "unit": "%"}, {"measurement": "remaining binding at 0.1 µM", "setting": "[14]", "result": 100, "unit": "%"}, {"measurement": "remaining binding at 1 µM", "setting": "[15]", "result": 89, "unit": "%"}, {"measurement": "remaining binding at 0.1 µM", "setting": "[16]", "result": 100, "unit": "%"}, {"measurement": "remaining binding at 0.1 µM", "setting": "[17]", "result": 100, "unit": "%"}, {"measurement": "remaining binding at 0.1 µM", "setting": "[18]; PRKCD, 100 nM", "result": 100, "unit": "%"}, {"measurement": "remaining binding at 1 µM", "setting": "[18]; kinase PRKCD (Entrez PRKCD), compound concentration 1000 nM", "result": 83, "unit": "%"}, {"measurement": "remaining binding at 1 µM", "setting": "[19]", "result": 92, "unit": "%"}, {"measurement": "remaining binding at 0.1 µM", "setting": "[20]; PRKG2, 100 nM", "result": 100, "unit": "%"}, {"measurement": "remaining binding at 1 µM", "setting": "[20]; kinase PRKG2 (Entrez PRKG2), compound concentration 1000 nM", "result": 100, "unit": "%"}, {"measurement": "remaining binding at 0.1 µM", "setting": "[21]", "result": 100, "unit": "%"}, {"measurement": "remaining binding at 0.1 µM", "setting": "[22]", "result": 64, "unit": "%"}, {"measurement": "remaining binding at 0.1 µM", "setting": "[23]", "result": 100, "unit": "%"}, {"measurement": "remaining binding at 0.1 µM", "setting": "[24]", "result": 87, "unit": "%"}, {"measurement": "remaining binding at 0.1 µM", "setting": "[25]; PIM3, 100 nM", "result": 100, "unit": "%"}, {"measurement": "remaining binding at 1 µM", "setting": "[25]; kinase PIM3 (Entrez PIM3), compound concentration 1000 nM", "result": 100, "unit": "%"}, {"measurement": "remaining binding at 0.1 µM", "setting": "[26]; NIK (Entrez MAP3K14), 100 nM", "result": 87, "unit": "%"}, {"measurement": "remaining binding at 1 µM", "setting": "[26]; kinase NIK (Entrez MAP3K14), compound concentration 1000 nM", "result": 88, "unit": "%"}, {"measurement": "remaining binding at 0.1 µM", "setting": "[27]; PIP5K1A, 100 nM", "result": 90, "unit": "%"}, {"measurement": "remaining binding at 1 µM", "setting": "[27]; kinase PIP5K1A (Entrez PIP5K1A), compound concentration 1000 nM", "result": 18, "unit": "%"}, {"measurement": "remaining binding at 1 µM", "setting": "[28]", "result": 98, "unit": "%"}, {"measurement": "remaining binding at 1 µM", "setting": "[29]", "result": 68, "unit": "%"}]}
